Experimental data taken from ChEMBL document CHEMBL2069234, “Aristoxazole analogues. Conversion of 8-nitro-1-naphthoic acid to 2-methylnaphtho[1,2-d]oxazole-9-carboxylic acid: comments on the chemical mechanism of formation of DNA adducts by the aristolochic acids” (J Nat Prod, 2012).

Legend:
Salmonella typhimurium = assay: Mutagenicity in Salmonella typhimurium TA100; format: toxicity, organism-based; details: salmonella enterica subsp. enterica serovar typhimurium
[1] = Drug conversion assessed as formation of oxazole derivatives in presence of Zn/HOAc; format: physicochemical

## COc1cccc2c1cc([N+](=O)[O-])c1c(C(=O)O)cc3c(c12)OCO3 [ARISTOLOCHIC ACID]
Salmonella typhimurium
  Activity: Toxic
[1]
  Drug metabolism: Active
